According to publication PMC3162300 (Journal of Natural Products, 2011):
Marks after values point to notes of the source that are not given here.

Assays:
COX-1 = biological target: T1, COX-1 (Ovis aries, UniProt P05979); experiment: COX-1 inhibition assay; format: biochemical, ram; conditions: read-out: inhibition of COX-1
T1 sequence (P05979 25-600): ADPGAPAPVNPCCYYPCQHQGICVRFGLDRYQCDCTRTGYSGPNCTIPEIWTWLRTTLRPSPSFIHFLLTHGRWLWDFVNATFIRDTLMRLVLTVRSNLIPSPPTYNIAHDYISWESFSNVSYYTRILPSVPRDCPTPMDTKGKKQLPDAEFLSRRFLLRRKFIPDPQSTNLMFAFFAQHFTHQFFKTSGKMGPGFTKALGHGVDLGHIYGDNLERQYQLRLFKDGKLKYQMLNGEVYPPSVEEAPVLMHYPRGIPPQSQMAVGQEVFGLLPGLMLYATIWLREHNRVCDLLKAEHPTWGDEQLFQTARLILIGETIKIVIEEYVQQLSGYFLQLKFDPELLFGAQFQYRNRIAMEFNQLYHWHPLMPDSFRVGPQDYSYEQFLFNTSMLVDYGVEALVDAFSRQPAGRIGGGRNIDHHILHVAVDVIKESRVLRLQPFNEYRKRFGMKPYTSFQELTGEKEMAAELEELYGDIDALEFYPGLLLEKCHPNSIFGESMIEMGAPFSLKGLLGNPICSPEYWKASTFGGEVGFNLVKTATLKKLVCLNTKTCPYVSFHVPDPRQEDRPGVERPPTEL

[1] = tested on: croton oil-induced ear dermatitis (edema); experiment: Croton oil-induced mouse ear dermatitis: edematous response
COX-2 = biological target: T2, COX-2 (Ovis aries, UniProt P79208); experiment: COX-2 inhibition assay; format: biochemical, sheep; conditions: read-out: inhibition of COX-2
T2 sequence (P79208 17-603): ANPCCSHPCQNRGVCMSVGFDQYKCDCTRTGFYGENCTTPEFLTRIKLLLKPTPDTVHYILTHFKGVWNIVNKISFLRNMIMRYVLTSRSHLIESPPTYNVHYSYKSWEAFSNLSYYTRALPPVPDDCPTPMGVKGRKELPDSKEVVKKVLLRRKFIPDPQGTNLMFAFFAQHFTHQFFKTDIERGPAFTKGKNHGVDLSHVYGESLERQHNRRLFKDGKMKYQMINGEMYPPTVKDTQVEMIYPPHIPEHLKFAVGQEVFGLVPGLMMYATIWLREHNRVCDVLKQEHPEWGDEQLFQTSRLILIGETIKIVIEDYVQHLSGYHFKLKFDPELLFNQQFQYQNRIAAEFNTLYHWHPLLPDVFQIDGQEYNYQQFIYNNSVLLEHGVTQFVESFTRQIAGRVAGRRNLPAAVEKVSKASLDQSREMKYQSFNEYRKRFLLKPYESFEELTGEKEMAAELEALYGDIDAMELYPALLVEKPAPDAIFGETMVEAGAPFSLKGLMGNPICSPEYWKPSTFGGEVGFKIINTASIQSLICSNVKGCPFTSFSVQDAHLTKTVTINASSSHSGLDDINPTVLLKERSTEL

[2] = tested on: croton oil-induced ear dermatitis (ear tissue histology); experiment: Histological analysis of ear tissue after croton oil dermatitis
[3] = DPPH free-radical-scavenging assay; conditions: up to 100 μM
5-LO = biological target: T3, 5-LO (Homo sapiens, UniProt P09917); format: cell-based; conditions: read-out: inhibition of leukotriene formation
T3 sequence (P09917 1-674): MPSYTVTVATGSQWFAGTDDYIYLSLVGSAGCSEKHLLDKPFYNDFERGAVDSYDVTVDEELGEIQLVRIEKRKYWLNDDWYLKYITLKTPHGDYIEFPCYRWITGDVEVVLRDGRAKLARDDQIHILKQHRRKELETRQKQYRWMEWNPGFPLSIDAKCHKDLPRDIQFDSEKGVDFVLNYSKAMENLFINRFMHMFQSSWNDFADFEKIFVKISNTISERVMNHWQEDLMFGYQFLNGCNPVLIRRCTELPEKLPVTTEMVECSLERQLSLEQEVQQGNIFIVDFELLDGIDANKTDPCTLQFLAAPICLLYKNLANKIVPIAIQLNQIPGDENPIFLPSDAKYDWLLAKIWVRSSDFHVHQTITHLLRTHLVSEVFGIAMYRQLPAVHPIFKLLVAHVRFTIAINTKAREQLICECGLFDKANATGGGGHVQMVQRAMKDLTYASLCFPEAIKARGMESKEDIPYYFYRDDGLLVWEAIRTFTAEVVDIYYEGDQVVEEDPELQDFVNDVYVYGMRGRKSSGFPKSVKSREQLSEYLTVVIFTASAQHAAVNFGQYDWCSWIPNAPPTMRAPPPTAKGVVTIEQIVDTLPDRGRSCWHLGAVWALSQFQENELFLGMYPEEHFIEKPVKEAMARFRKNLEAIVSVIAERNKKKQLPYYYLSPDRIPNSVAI

IKK2 = biological target: T4, IKK2 (Homo sapiens, UniProt O14920); experiment: IKK2 enzymatic activity assay; format: biochemical; conditions: 400 nM
T4 sequence (O14920 1-756): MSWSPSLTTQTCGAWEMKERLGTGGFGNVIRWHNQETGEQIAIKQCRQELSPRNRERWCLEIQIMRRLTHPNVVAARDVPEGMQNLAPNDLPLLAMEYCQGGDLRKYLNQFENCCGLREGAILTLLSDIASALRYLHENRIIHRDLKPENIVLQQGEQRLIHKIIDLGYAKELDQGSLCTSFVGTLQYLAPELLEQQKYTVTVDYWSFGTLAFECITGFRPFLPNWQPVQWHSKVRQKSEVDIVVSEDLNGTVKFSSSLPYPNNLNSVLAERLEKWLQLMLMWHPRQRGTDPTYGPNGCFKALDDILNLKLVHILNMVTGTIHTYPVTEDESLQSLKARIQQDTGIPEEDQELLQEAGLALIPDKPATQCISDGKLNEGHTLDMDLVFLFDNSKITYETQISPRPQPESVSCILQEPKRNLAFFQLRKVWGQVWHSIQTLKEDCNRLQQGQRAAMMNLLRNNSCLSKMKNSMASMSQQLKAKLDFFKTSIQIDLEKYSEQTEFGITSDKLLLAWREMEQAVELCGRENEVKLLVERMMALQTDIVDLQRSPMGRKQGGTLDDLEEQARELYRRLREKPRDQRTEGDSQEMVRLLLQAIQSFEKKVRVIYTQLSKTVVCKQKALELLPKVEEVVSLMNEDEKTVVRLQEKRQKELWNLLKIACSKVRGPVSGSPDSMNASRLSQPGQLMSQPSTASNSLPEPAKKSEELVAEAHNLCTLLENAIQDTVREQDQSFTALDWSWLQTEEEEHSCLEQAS

[4] = dose giving 50% inhibition of edema, 6 h, topical
[5] = topical dose 0.10 μmol/cm^2, 6 h
[6] = topical dose 0.30 μmol/cm^2, 6 h
[7] = topical dose 1.00 μmol/cm^2, 6 h

Row | Compound | inhibition at 50 µM (COX-1) [%] | inhibition at 50 µM (COX-2) [%] | inhibition at 50 µM (5-LO) [%] | ID50 (μg/cm^2) [1, 4] [μg/cm^2] | edema (mg) mean ± SE [1, 5] | edema (mg) mean ± SE [1, 6] | edema (mg) mean ± SE [1, 7] | edema (mg) mean ± SE ([1]; topical dose 0.01 μmol/cm^2, 6 h) | edema (mg) mean ± SE ([1]; topical dose 0.03 μmol/cm^2, 6 h) | histological finding in ear tissue ([2]; 0.04 μmol/cm^2, 3-48 h) | effect in DPPH assay [3] | histological finding in ear tissue ([2]; 0.4 μmol/cm^2, 3-48 h) | effect on IKK2 enzymatic activity (IKK2) | ID50 (μmol/cm^2) [1, 4] [μmol/cm^2]
1 | C/C=C/c1ccc2oc(-c3ccc(OC)cc3O)cc2c1 [compound 10, rataniaphenol I] |  |  |  | 160 | 6.2 ± 0.3 mg | 4.6 ± 0.3 ^a mg | 2.5 ± 0.3 ^a mg |  |  |  |  |  |  | 
2 | C[C@@H]1[C@H](C)[C@@H](c2ccc(O)cc2)O[C@H]1c1ccc(O)cc1 [compound 3, meso-3,3′-didemethoxynectandrin B] |  |  |  | 102 | 5.9 ± 0.3 ^a mg | 3.3 ± 0.3 ^a mg | 1.9 ± 0.2 ^a mg |  |  |  |  |  |  | 
3 | C[C@]12CCC(=O)C=C1CC[C@@H]1[C@@H]2[C@@H](O)C[C@@]2(C)[C@H]1CC[C@]2(O)C(=O)CO [hydrocortisone, reference compound] |  |  |  | 11 | 1.6 ± 0.2 ^a mg |  |  | 4.9 ± 0.3 ^a mg | 3.1 ± 0.3 ^a mg | attenuation of all the vascular and cellular signs of inflammation |  |  |  | 
4 | NC(=O)Nc1sc(-c2ccc(F)cc2)cc1C(N)=O [IKK2 inhibitor IV] |  |  |  |  |  |  |  |  |  |  |  |  | completely suppressed IKK2 enzymatic activity to the background level | 
5 | C/C=C/c1ccc2c(c1)C(CO)[C@@H](c1ccc(O)cc1)O2 (stereo in doubt) [compound 4, (2S,3S)-2,3-dihydro-3-hydroxymethyl-2-(4-hydroxyphenyl)-5-(E)-propenylbenzofuran] |  |  |  | 118 | 5.7 ± 0.4 ^a mg | 4.4 ± 0.3 ^a mg | 1.7 ± 0.2 ^a mg |  |  |  |  |  |  | 0.42
6 | C[C@@H]1[C@H](C)[C@@H](c2ccc(O)cc2)O[C@@H]1c1ccc(O)cc1 [compound 2, (−)-larreatricin] |  |  |  | 131 | 5.6 ± 0.3 ^a mg | 4.2 ± 0.4 ^a mg | 2.3 ± 0.2 ^a mg |  |  |  |  |  |  | 
7 | COc1ccc2c(c1)c(CC(=O)O)c(C)n2C(=O)c1ccc(Cl)cc1 [indomethacin, reference compound] |  |  |  | 104 | 5.2 ± 0.4 ^a mg | 3.4 ± 0.3 ^a mg | 1.4 ± 0.2 ^a mg |  |  |  |  | reduced mast cell degranulation and leukocyte infiltration at all observation times |  | 

Now from value to molecule, other results behind:

Row | inhibition at 50 µM (COX-1) [%] | inhibition at 50 µM (COX-2) [%] | inhibition at 50 µM (5-LO) [%] | Compound | ID50 (μg/cm^2) [1, 4] [μg/cm^2] | edema (mg) mean ± SE [1, 5] | edema (mg) mean ± SE [1, 6] | edema (mg) mean ± SE [1, 7] | edema (mg) mean ± SE ([1]; topical dose 0.01 μmol/cm^2, 6 h) | edema (mg) mean ± SE ([1]; topical dose 0.03 μmol/cm^2, 6 h) | histological finding in ear tissue ([2]; 0.04 μmol/cm^2, 3-48 h) | effect in DPPH assay [3] | histological finding in ear tissue ([2]; 0.4 μmol/cm^2, 3-48 h) | effect on IKK2 enzymatic activity (IKK2) | ID50 (μmol/cm^2) [1, 4] [μmol/cm^2]
8 | 57.2 to 83.3 | 57.2 to 83.3 |  | C/C=C/c1ccc2oc(-c3ccc(O)cc3O)cc2c1 [compound 6, 2-(2,4-dihydroxyphenyl)-5-(E)-propenylbenzofuran] | 160 | 5.9 ± 0.3 ^a mg | 4.9 ± 0.3 ^a mg | 2.5 ± 0.3 ^a mg |  |  |  |  |  |  | 
9 | 57.2 to 83.3 | 57.2 to 83.3 |  | C/C=C/c1ccc2oc(-c3ccc(O)cc3OC)cc2c1 [compound 9, rataniaphenol III] | 134 | 6.1 ± 0.2 mg | 4.4 ± 0.3 ^a mg | 2.1 ± 0.3 ^a mg |  |  |  |  |  |  | 
10 | 57.2 to 83.3 | 57.2 to 83.3 |  | C/C=C/c1ccc2oc(-c3ccc(O)cc3)cc2c1 [compound 8, 2-(4-hydroxyphenyl)-5-(E)-propenylbenzofuran] | 110 | 5.9 ± 0.3 ^a mg | 4.5 ± 0.3 ^a mg | 1.8 ± 0.3 ^a mg |  |  |  | no effect |  |  | 
11 |  |  | 80.2 to 94.6 | COc1ccc(-c2cc3cc(CCCO)ccc3o2)c(O)c1 [compound 5, 2-(2-hydroxy-4-methoxyphenyl)-5-(3-hydroxypropyl)benzofuran] | 107 | 5.2 ± 0.3 ^a mg | 3.4 ± 0.2 ^a mg | 2.3 ± 0.2 ^a mg |  |  |  |  | general reduction of these vascular and cellular changes due to inflammation |  | 
12 |  |  | 80.2 to 94.6 | C/C=C/c1ccc2c(c1)[C@@H](C)[C@H](c1ccc(O)cc1)O2 [compound 7, (+)-conocarpan] | 82 | 5.2 ± 0.4 ^a mg | 3.8 ± 0.2 ^a mg | 1.3 ± 0.1 ^a mg |  |  |  | no effect | general reduction of these vascular and cellular changes due to inflammation |  | 
13 | 57.2 to 83.3 | 57.2 to 83.3 |  | C/C=C/c1ccc2oc(-c3ccc(O)cc3)c(C)c2c1 [compound 11, rataniaphenol II] | 106 | 6.0 ± 0.4 mg | 4.0 ± 0.2 ^a mg | 1.7 ± 0.2 ^a mg |  |  |  | no effect |  |  | 
14 |  |  | 80.2 to 94.6 | COc1cc(O)ccc1-c1cc2cc(CCCO)ccc2o1 [compound 1, 5-(3-hydroxypropyl)-2-(2-methoxy-4-hydroxyphenyl)benzofuran] | 134 | 6.0 ± 0.3 ^a mg | 4.7 ± 0.3 ^a mg | 1.7 ± 0.1 ^a mg |  |  |  |  |  |  | 
